According to patent US20150258108A1 (priority 2014, published 2015):
Several values for one entry are separate records, joined by “and”; a condition that tells them apart may be missing. Identical values can stand only once.

What was measured:
human OPRM [1] = molecular target: T1, human OPRM (Homo sapiens, UniProt P35372); test: cell-based; type: cell-based; set-up: host or cells: CHO-K1
[2] = Pharmacokinetics in opioid-dependent patients (Phase IB); conditions: 60, 120, 180 mg cohorts
[3] = Treatment emergent adverse events in opioid-dependent participants (Phase IB)
[4] = molecular target: human OPRM (μ-opioid receptor) (Homo sapiens, UniProt P35372); test: biochemical; type: binding; set-up: expressed in transfected cells; host or cells: CHO-K1 (cell lines provided by Dr. Toll, Torrey Pines Institute)
Chain of human OPRM (μ-opioid receptor) (P35372 whole entry): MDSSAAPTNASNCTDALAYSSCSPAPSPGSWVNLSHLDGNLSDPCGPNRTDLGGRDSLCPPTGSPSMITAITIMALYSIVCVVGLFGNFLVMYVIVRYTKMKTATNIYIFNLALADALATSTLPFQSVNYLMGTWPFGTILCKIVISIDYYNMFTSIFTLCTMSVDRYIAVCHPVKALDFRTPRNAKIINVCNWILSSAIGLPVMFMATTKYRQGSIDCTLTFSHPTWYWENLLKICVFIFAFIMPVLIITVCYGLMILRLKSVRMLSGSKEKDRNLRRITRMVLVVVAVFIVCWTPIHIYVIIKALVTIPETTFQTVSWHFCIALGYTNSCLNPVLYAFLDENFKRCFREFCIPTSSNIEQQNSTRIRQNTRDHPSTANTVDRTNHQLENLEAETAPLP

human OPRM [5] = molecular target: T1, human OPRM; test: biochemical; type: biochemical; set-up: expressed in transfected cells; host or cells: CHO-K1 (cell lines provided by Dr. Toll, Torrey Pines Institute)
[6] = 60 mg single dose, opioid-dependent patients, N = 6, events:subjects (%)
[7] = 120 mg single dose, opioid-dependent patients, N = 6, events:subjects (%)
[8] = 180 mg single dose, opioid-dependent patients, N = 6, events:subjects (%)

T1 sequence (P35372 whole entry): as above

Structure (SMILES): CC[C@H]1CC2C[C@H]3c4[nH]c5ccc(O)cc5c4CCN(C2)C13 [Noribogaine]
- EC50 (human OPRM [1]): ~1.15 µM
- Efficacy (human OPRM [1]): 3%
- IC50 (human OPRM [1]): ~57 µM
- Ke (human OPRM [1]): ~4.8 µM
- agonism at OPRM β-arrestin-2 recruitment (human OPRM [1]): not an agonist at OPRM
- e-coupling (human OPRM [1]): ~1.10
- inhibition of agonist response (up to) (human OPRM [1]): 60-100%
- Kb (human OPRM [1]; pEC50, pKe): 63.1 µM
- Maximum serum concentration (Cmax) versus dose [2]: increased in a dose-dependent manner
- TEAE: Catheter Site Infection [3, 6]: 0
- TEAE: Catheter Site Pain [3, 6]: 0
- TEAE: Catheter Site Related Reaction [3, 6]: 0
- TEAE: Cellulitis [3, 6]: 0
- TEAE: Diarrhoea [3, 6]: 0
- TEAE: Dry Mouth [3, 6]: 0
- TEAE: Ear and Labyrinth Disorders [3, 6]: 0
- TEAE: Epistaxis [3, 6]: 0
- TEAE: Euphoric Mood [3, 6]: 0
- TEAE: General Disorders and Administration Site Conditions [3, 6]: 0
- TEAE: Hyperaesthesia [3, 6]: 0
- TEAE: Infections and Infestations [3, 6]: 0
- TEAE: Limb Discomfort [3, 6]: 0
- TEAE: Malaise [3, 6]: 0
- TEAE: Nausea [3, 6]: 0
- TEAE: Oropharyngeal Pain [3, 6]: 0
- TEAE: Pseudoparalysis [3, 6]: 0
- TEAE: Respiratory, Thoracic and Mediastinal Disorders [3, 6]: 0
- TEAE: Rhinorrhoea [3, 6]: 0
- TEAE: Skin Discomfort [3, 6]: 0
- TEAE: Skin Irritation [3, 6]: 0
- TEAE: Skin and Subcutaneous Tissue Disorders [3, 6]: 0
- TEAE: Somnoience [3, 6]: 0
- TEAE: Tinnitus [3, 6]: 0
- TEAE: Tremor [3, 6]: 0
- TEAE: Urinary Tract Infection [3, 6]: 0
- TEAE: Vomiting [3, 6]: 0
- TEAE: Back Pain [3, 7]: 0
- TEAE: Catheter Site Infection [3, 7]: 0
- TEAE: Catheter Site Related Reaction [3, 7]: 0
- TEAE: Depressed Mood [3, 7]: 0
- TEAE: Dry Eye [3, 7]: 0
- TEAE: Dyspepsia [3, 7]: 0
- TEAE: Euphoric Mood [3, 7]: 0
- TEAE: Limb Discomfort [3, 7]: 0
- TEAE: Malaise [3, 7]: 0
- TEAE: Musculoskeletal and Connective Tissue Disorders [3, 7]: 0
- TEAE: Psychiatric Disorders [3, 7]: 0
- TEAE: Somnoience [3, 7]: 0
- TEAE: Urinary Tract Infection [3, 7]: 0
- TEAE: Catheter Site Infection [3, 8]: 0
- TEAE: Catheter Site Pain [3, 8]: 0
- TEAE: Depressed Mood [3, 8]: 0
- TEAE: Diarrhoea [3, 8]: 0
- TEAE: Dry Eye [3, 8]: 0
- TEAE: Dyspepsia [3, 8]: 0
- TEAE: Ear and Labyrinth Disorders [3, 8]: 0
- TEAE: Epistaxis [3, 8]: 0
- TEAE: Euphoric Mood [3, 8]: 0
- TEAE: Hyperaesthesia [3, 8]: 0
- TEAE: Malaise [3, 8]: 0
- TEAE: Oropharyngeal Pain [3, 8]: 0
- TEAE: Pseudoparalysis [3, 8]: 0
- TEAE: Psychiatric Disorders [3, 8]: 0
- TEAE: Respiratory, Thoracic and Mediastinal Disorders [3, 8]: 0
- TEAE: Rhinorrhoea [3, 8]: 0
- TEAE: Skin Discomfort [3, 8]: 0
- TEAE: Skin Irritation [3, 8]: 0
- TEAE: Skin and Subcutaneous Tissue Disorders [3, 8]: 0
- TEAE: Somnoience [3, 8]: 0
- TEAE: Tinnitus [3, 8]: 0
- TEAE: Tremor [3, 8]: 0
- hallucinatory effects ([3]; 60, 120, 180 mg single dose, opioid-dependent participants): no hallucinatory effects
- Ki [4]: 1.52 ± 0.3 µM
- IC50 (human OPRM [5]): 134 ± 17 µM
- Ke (human OPRM [5]): 19 ± 5 µM
- Ke (functional inhibition constant) (human OPRM [5]): 19.203 µM
- antagonist potency, OPRM G-protein pathway (human OPRM [5]): 20 µM
- e-coupling (human OPRM [5]): 1.02 and 1.10
- EC50 (human OPRM [5]; EC50): 16.1 µM
- Kb (human OPRM [5]; Ke): 28 ± 14 µM
- EC50 (human OPRM [5]; approximated EC50): ~16 µM
- Kb (human OPRM [5]; pEC50, (Ke): pKe): 20 µM
